Experimental findings from BindingDB's records for patent WO2022109580 (JANSSEN PHARMACEUTICA NV, 2022) are described below.

The assay deals with T1, Non-receptor tyrosine-protein kinase TYK2 [556-871] (Homo sapiens, UniProt P29597).
T1 construct: 556-871
T1 sequence (P29597 556-871): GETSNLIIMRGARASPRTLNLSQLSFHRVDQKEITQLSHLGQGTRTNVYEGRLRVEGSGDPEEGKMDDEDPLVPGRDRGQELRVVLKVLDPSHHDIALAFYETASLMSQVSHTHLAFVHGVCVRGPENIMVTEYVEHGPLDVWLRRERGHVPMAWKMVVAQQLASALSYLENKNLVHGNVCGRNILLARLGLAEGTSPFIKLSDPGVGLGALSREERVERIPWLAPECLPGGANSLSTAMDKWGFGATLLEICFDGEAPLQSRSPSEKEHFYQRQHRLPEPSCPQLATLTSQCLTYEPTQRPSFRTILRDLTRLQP
Briefly: Probe Displacement Assay. How it is done:
The probe displacement assay is conducted as follows: In a 384-well plate, test compound along with recombinantly expressed His-tagged protein corresponding to amino acids 556-871 of human TYK2 (sequence shown below) at 5 nM, 33 nM probe (BB, preparation described below) and 0.33 mg/mL Yttrium oxide (YOx) His-capture SPA beads (PerkinElmer, RPNQ0276) in IX PBS containing 10 mM MgCl2, 0.1 mg/mL BSA, 0.1 mM TCEP, 0.005% Tween-20, and 1% DMSO (final concentration) were incubated for 10 hours at room temperature. The amount of radiolabeled probe bound to TYK2 was then quantified using a ViewLux Microplate Imager, and the fraction bound by the test compound calculated by comparison to wells containing scale references for 0% and 100% probe displacement. The IC50 value is defined as the concentration of test compound required to inhibit radiolabeled probe binding by 50%.
With `CO[C@]1(c2cc(OCC3CS(=O)(=O)C3)cc(-n3cc(C)c4cnc(NC(N)=O)cc43)n2)CCOC1` [WO2022109580, Example 22], the IC50 turned out to be 14 nM. Turning to `CO[C@]1(c2cc(C)cc(-c3cc(C)n4cnc(NC(N)=O)cc34)n2)CCOC1` [WO2022109580, Example 25], the IC50 stood at 2 nM. The compound `COCCOc1cc(-n2nc(C)c3cnc(NC(N)=O)cc32)nc([C@@]2(OC)CCOC2)c1` [WO2022109580, Example 10] registered an IC50 of 6 nM. `CO[C@]1(c2cc(OCC3COC3)cc(-n3cc(C)c4cnc(NC(N)=O)cc43)n2)CCOC1` [WO2022109580, Example 20] yielded an IC50 of 11 nM.

As for `CO[C@@]1(c2cc(OC[C@@H](C)O)cc(-n3nc(C)c4cnc(NC(N)=O)cc43)n2)CCOC1` [WO2022109580, Example 11], the IC50 stood at 2 nM. On to `CO[C@]1(c2cc(OCC3COC3)cc(-n3nc(C)c4cnc(NC(N)=O)cc43)n2)CCOC1` [WO2022109580, Example 14], for which the IC50 is 4 nM. For `CO[C@]1(c2cc(OC[C@@H](C)O)cc(-n3nc(C)c4cnc(NC(N)=O)cc43)n2)CCOC1` [WO2022109580, Example 12], the IC50 was 6 nM. Compound `CO[C@]1(c2cc(C)cc(-n3nc(-c4cnn(C)c4)c4cnc(NC(N)=O)cc43)n2)CCOC1` [WO2022109580, Example 2] came in with an IC50 of 4 nM.

For the compound `CO[C@@]1(c2cc(C)cc(-n3nc(C)c4cnc(NC(N)=O)cc43)n2)CCOC1` [WO2022109580, Example 5], the IC50 worked out at 3 nM.

`CO[C@@]1(c2cc(C)cc(N3C=C(c4cnn(C)c4)N4C=NC(NC(N)=O)=CC43)n2)CCOC1` (stereo partly specified) [WO2022109580, Example 23] returned an IC50 of 5 nM.

For the compound `CO[C@]1(c2cc(C)cc(-c3cc(-c4cnn(C)c4)n4cnc(NC(N)=O)cc34)n2)CCOC1` [WO2022109580, Example 24], the IC50 was 42 nM.

As for `CO[C@@]1(c2cc(C)cc(-n3cc(C)c4cnc(NC(N)=O)cc43)n2)CCOC1` [WO2022109580, Example 17], the IC50 turned out to be 4 nM. As for `CO[C@@]1(c2cc(OCC3COC3)cc(-n3cc(C)c4cnc(NC(N)=O)cc43)n2)CCOC1` [WO2022109580, Example 19], the figure is 2 nM; as for `CO[C@]1(c2cc(C)cc(-n3nc(C)c4cnc(NC(N)=O)cc43)n2)CCOC1` [WO2022109580, Example 6], 8 nM. In turn, `CO[C@@]1(c2cc(OCC3COC3)cc(-n3nc(C)c4cnc(NC(N)=O)cc43)n2)CCOC1` [WO2022109580, Example 13] came in with a 50% inhibitory concentration (IC50) of 2 nM. `COCCOc1cc(-n2nc(C)c3cnc(NC(N)=O)cc32)nc([C@]2(OC)CCOC2)c1` [WO2022109580, Example 9] returned an IC50 of 2 nM. On to `CO[C@]1(c2cc(C)cc(-n3cc(C)c4cnc(NC(N)=O)cc43)n2)CCOC1` [WO2022109580, Example 18], for which the IC50 turned out to be 8 nM. Against the preceding compound, the IC50 is about 4-fold higher. As for `CO[C@]1(c2cc(C)cc(-n3nc(-c4cnoc4)c4cnc(NC(N)=O)cc43)n2)CCOC1` [WO2022109580, Example 4], the figure is 2 nM. In turn, `CO[C@@]1(c2cc(C)cc(-n3nc(-c4cnoc4)c4cnc(NC(N)=O)cc43)n2)CCOC1` [WO2022109580, Example 3] yielded an IC50 of 1 nM. This IC50 lies about 2-fold lower than the previous one. Take `CO[C@@]1(c2cc(C)cc(-n3nc(-c4cnn(C)c4)c4cnc(NC(N)=O)cc43)n2)CCOC1` [WO2022109580, Example 1]: the IC50 was found to be 2 nM. As to `CO[C@]1(c2cc(OCC3CS(=O)(=O)C3)cc(-n3nc(C)c4cnc(NC(N)=O)cc43)n2)CCOC1` [WO2022109580, Example 16], the IC50 is 7 nM.

Broadly, the IC50 is the concentration that gives 50% inhibition. Low values mean higher potency, high ones lower potency.
